Results as given in patent US9682960B2 (priority 2013, dated 2017).
Values joined by “and” are separate entries in the source; they are usually repeats but may differ in a detail not shown here. Equal values may be shown once. “Also recorded” adds a separate entry of the source. Read-outs that look alike come from different tables or passages of the source.

How the values were obtained:
[1] = molecular target: Human Androgen Receptor (Homo sapiens (Human), UniProt P10275); assay: Androgen receptor assay: [3H]R1881 displacement, cytosol of HEK-293 cells transfected with hAR (hydroxylapatite assay); type: binding; conditions: for affinity for the androgen receptor (in words): SAR discussion; for Human Androgen Receptor Binding RBA (%) R1881 = 100: relative binding affinity; for times more binding to the human androgen receptor than the corresponding hydantoin: thiohydantoin versus hydantoin (EM-9052 vs EM-9150; EM-7105 vs EM-7333)
Sequence of Human Androgen Receptor (P10275 whole entry): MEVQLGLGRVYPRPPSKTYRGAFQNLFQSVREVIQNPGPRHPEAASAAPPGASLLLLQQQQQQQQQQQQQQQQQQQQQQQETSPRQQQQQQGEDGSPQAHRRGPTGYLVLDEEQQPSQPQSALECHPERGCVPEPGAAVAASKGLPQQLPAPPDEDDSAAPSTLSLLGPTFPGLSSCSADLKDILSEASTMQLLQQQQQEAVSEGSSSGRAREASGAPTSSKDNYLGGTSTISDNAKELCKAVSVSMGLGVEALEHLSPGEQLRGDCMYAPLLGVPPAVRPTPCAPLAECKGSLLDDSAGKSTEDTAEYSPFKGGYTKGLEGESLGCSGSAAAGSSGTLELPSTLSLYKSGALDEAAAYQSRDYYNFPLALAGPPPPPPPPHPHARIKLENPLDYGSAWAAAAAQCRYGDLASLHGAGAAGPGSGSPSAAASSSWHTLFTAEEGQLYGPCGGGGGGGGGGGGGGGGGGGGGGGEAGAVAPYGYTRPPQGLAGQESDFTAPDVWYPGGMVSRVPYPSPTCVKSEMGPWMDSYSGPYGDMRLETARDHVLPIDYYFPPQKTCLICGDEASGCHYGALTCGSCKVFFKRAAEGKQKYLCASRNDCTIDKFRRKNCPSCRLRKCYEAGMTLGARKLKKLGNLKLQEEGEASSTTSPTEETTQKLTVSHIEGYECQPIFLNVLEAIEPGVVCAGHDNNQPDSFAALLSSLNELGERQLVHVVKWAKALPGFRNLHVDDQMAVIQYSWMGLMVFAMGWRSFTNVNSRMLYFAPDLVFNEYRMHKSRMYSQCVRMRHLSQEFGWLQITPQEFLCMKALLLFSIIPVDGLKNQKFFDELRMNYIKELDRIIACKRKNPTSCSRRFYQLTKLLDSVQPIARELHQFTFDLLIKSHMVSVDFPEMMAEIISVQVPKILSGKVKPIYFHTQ

[2] = molecular target: Rat Androgen Receptor (Rattus norvegicus (Rat), UniProt P15207); assay: Androgen receptor assay: [3H]R1881 displacement, rat prostate cytosol; type: binding; conditions: for Rat Androgen Receptor Binding RBA (%) R1881 = 100: relative binding affinity, prostate cytosol
Sequence of Rat Androgen Receptor (P15207 whole entry, looked up): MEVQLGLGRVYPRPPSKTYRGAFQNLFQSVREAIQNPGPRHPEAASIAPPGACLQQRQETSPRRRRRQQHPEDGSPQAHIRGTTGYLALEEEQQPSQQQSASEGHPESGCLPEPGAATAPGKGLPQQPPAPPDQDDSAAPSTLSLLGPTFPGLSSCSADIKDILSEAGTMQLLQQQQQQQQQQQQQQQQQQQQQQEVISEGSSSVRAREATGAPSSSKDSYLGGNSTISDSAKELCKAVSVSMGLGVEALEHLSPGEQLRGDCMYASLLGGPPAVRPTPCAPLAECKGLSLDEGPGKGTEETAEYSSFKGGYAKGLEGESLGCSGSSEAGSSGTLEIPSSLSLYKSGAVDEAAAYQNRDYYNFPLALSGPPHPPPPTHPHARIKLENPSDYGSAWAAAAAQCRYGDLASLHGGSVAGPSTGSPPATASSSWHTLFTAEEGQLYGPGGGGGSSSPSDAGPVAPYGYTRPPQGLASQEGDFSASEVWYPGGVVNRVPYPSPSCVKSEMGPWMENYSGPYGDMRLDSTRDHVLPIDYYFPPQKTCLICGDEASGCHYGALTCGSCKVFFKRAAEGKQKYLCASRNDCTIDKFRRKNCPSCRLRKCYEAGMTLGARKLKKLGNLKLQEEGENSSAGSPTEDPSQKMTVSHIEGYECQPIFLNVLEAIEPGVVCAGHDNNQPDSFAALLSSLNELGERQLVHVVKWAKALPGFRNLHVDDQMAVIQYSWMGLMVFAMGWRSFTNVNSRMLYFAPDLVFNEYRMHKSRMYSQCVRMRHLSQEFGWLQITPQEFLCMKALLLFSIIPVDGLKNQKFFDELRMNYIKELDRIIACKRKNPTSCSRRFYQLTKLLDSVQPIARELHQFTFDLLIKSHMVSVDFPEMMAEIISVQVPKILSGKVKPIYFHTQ
Experimental: On the morning of the binding assay, ventral prostates collected from 24 h-gonadectomized rats were homogenized in buffer A (1 g of tissue in 5 mL) and the homogenate was centrifuged as described above.
Androgen binding is measured using the hydroxylapatite (HAP) assay. In brief, the radioactive steroid [^3H]R1881 solubilized in ethanol is diluted with buffer B (10 mM Tris-HCl, 1.5 mM EDTA disodium salt, 10 mM α-monothioglycerol, pH 7.4). Aliquots of the cell or prostate cytosol preparation (0.1 ml) are then incubated with 5 nM [^3H]R1881 (0.1 ml, ˜100 000 cpm) in the presence or absence of the indicated concentrations of unlabeled compounds (0.1 ml, prepared in buffer B containing 30% ethanol) for 16-18 h at 0-4° C. Triamcinolone acetonide (TAC; 100 nM) is added to mask progesterone receptors. Unbound steroids are separated by incubation for 40 min at 0-4° C. with 0.3 ml HAP prepared in buffer P (50 mM Tris-HCl, 10 mM KH2PO4, pH 7.4). After incubation with HAP and 10 min of centrifugation at 1000×g, the pellet is washed 3 times with 1 ml of buffer P. Thereafter, the radioactivity is extracted from the pellet by incubation at room temperature for 60 min with 1 ml of ethanol. After centrifugation, the supernatant is decanted into a scintillation vial and the pellet is extracted again with ethanol. After the addition of scintillation liquid, the radioactivity is measured in a liquid scintillation counter.
Relative binding affinity (RBA) was calculated by the following formula: RBA (%) [IC50(R1881)/IC50 (compound)]×100 B—In Vitro Assay of Androgenic/Antiandrogenic Activity

[3] = system: Shionogi mouse mammary carcinoma cells; assay: In vitro androgenic/antiandrogenic activity: proliferation of Shionogi cells with or without DHT; type: cell-based
[4] = system: PSA levels in human prostatic carcinoma LNCaP cells; assay: Prostate specific antigen (PSA) in LNCaP cells with or without R1881; type: cell-based; conditions: for inhibition at 0.1 µM: Homo sapiens, read-out: LNCaP Cells Antiandrogenic activity (PSA) % inhibition at 10^−7M, R1881-stimulated, 10^−7M of compound; for LNCaP Cells Antiandrogenic activity (PSA) % inhibition at 10^−7M: R1881-stimulated, 10^−7M of compound
Experimental: LNCaP cells were cultured as previously described (Qi et al. 2001). In brief, the LNCaP cells were cultured for 6 days in 1.0 ml RPMI 1640 supplemented with hormone-depleted 0.25% FCS before each experiment. At the start of the experiment, half of the medium (0.5 ml) was replaced with 0.5 ml of identical medium containing the appropriate concentrations of tested compounds, in the presence or absence of 1.0 nM of R1881. After 72 h of incubation of LNCaP cells with compounds, 0.5 ml of culture medium was removed for PSA determination. PSA levels were measured using the PSA [^125I] IRMA KIT (REF: RK-10CT) from Izotop (Institute of Isotopes Ltd, Budapest, Hungary).

[5] = Oral absorption, Experiment 2: plasma, intraprostatic and intramuscular concentrations after 0.5 mg EM-9150/animal in castrated male rats; type: in vivo; conditions: Sprague-Dawley, rat, 0.5 mg/animal; for concentration at 7 h: po
Experimental: Castrated male Sprague-Dawley rats (Crl:CD(SD)Br) weighing 275-375 g were used for pharmacokinetic studies. Animals were fasted (access to water only) from around 16 h00 the afternoon prior to the dosing day.
Blood samples (˜0.5 mL/timepoint) were collected by jugular venipuncture on animals under isoflurane anesthesia at 1, 2, 3, 4, 7 and 24 h post-dosing. Blood samples were put into tubes containing EDTA(K3) as anticoagulant and centrifuged at 4° C. for 10 min at 1700-2400 g. The resulting plasma was frozen on dry ice and kept at −80° C. pending analysis. […] Prostates and bulbocavernosus muscles were frozen in liquid nitrogen and kept at −80° C. until being used. A buffer and an ethanol-acetone solution were added to the tissue and homogenized with a Polytron. The supernatant was collected, evaporated to dryness and reconstituted in buffer.
Intraprostatic and intramuscular concentrations of the compounds were also determined by LC-MS/MS.

[6] = system: castrated (CX) immature male rats; assay: Systemic androgenic (agonistic) activity in orchidectomized (CX) immature male rats; type: in vivo, rat; conditions: for CX Agonistic activity % Stimulation Bulbo / CX Agonistic activity % Stimulation SV / CX Agonistic activity % Stimulation Prostate: 0.1 mg/rat/po, 7 days; for CX Agonistic activity % Stimulation Bulbo: bulbocavernosus muscles weight; for CX Agonistic activity % Stimulation SV: seminal vesicles weight; for CX Agonistic activity % Stimulation Prostate: ventral prostate weight
[7] = system: Androgen Receptor; assay: Overall classification (antiandrogen / SARM) in the models studied
[8] = Mus musculus, read-out: Shionogi Antiandrogenic Activity IC50, DHT (0.3 nM)-stimulated cell number
[9] = DHT (0.3 nM)-stimulated cell number, read-out: Shionogi Antiandrogenic Activity IC50

Compound | CX Agonistic activity % Stimulation Bulbo [6] | CX Agonistic activity % Stimulation SV [6] | CX Agonistic activity % Stimulation Prostate [6] | classification as antiandrogen or SARM (in words) [7] | Human Androgen Receptor Binding RBA (%) R1881 = 100 ([1]; transfected cells) | IC50 [3, 8] [nM] | Human Androgen Receptor Binding RBA (%) R1881 = 100 ([1]; […]) | other results
CC1(C)C(=O)N(c2ccc(C#N)c(Cl)c2)C(=O)N1CCCOc1ccc(-c2ccncc2)cc1Cl [EM-9150] | 1% | 0% | 0% | antiandrogens | – | – | – | times more potent than bicalutamide to displace R1881 from the human AR ([1]; versus bicalutamide): 247 times; Rat Androgen Receptor Binding RBA (%) R1881 = 100 [2]: 6.5%; times more potent than OH-flutamide in the rat AR assay ([2]; versus OH-flutamide): 65 times; times more potent than bicalutamide in the rat AR assay ([2]; versus bicalutamide): 32 times; stimulation at 10^−7M on basal Shionogi cell proliferation (in words) ([3]; basal (no DHT), 10^−7M): absence of stimulation; inhibition at 0.1 µM ([4]; LNCaP): 57%; times more potent than bicalutamide in blocking R1881-stimulated PSA secretion ([4]; LNCaP, versus bicalutamide): 11.0 times and 10 times; stimulation at 10^−7M of basal PSA levels in LNCaP cells (in words) ([4]; basal (no R1881), 10^−7M): absence of stimulation; also recorded: no stimulation; times more inhibition of PSA levels in human LNCaP cells compared to the thiohydantoins ([4]; versus thiohydantoins of WO 2006/133567): ≥ 2 times; concentration at 7 h ([5]; bulbocavernosus muscles, read-out: intramuscular concentration): 1.2 ng/g; concentration at 7 h ([5]; plasma, read-out: plasma concentration): 0.9 ng/mL; Kp at 7 h ([5]; prostate / plasma, oral, read-out: concentration in the rat prostate versus plasma): ~3; concentration at 7 h ([5]; ventral prostate, read-out: intraprostatic concentration): 2.9 ng/g; agonistic activity on ventral prostate weight (in words) ([6]; daily oral dosing for 7 days, immature castrated rat): no agonistic activity
Cc1c(N2C(=O)C(C)(C)N(CCCOc3ccc(-c4ccncc4)c(C(F)(F)F)c3)C2=S)ccc(C#N)c1C(F)(F)F [EM-8821] | 74% | 22% | 22% | weaker SARM | 28.3% | 11.5 | – | affinity for the androgen receptor (in words) [1]: decreased affinity
CC1(C)C(=O)N(c2ccc(C#N)c(Cl)c2)C(=S)N1CCCOc1ccc(-c2ccncc2)cc1Cl [EM-9052] | – | – | – | – | – | 61 | – | times more binding to the human androgen receptor than the corresponding hydantoin [1]: 27 times; inhibition at 0.1 µM ([4]; LNCaP): 26%
Cc1c(N2C(=O)NC(C)(C)C2=O)ccc(C#N)c1Cl [EM-9289] | 138 ± 15 (n = 2) % | 38 ± 5 (n = 2) % | 50 ± 6 (n = 2) % | selective androgen receptor modulators | – | ~1000 | 1.0% | –
CCNCc1ccc(OCCCN2C(=S)N(c3ccc(C#N)c(C(F)(F)F)c3)C(=O)C2(C)C)cc1 [EM-7148, reference compound] | – | – | – | – | 11% and 11 ± 1% | – | – | IC50 [3, 9]: 9.2 nM; LNCaP Cells Antiandrogenic activity (PSA) % inhibition at 10^−7M [4]: 33%
CC(C)NCc1ccc(OCCCN2C(=S)N(c3ccc(C#N)c(C(F)(F)F)c3)C(=O)C2(C)C)cc1 [EM-7105, reference compound] | – | – | – | – | 41% and 41 ± 30% | – | – | times more binding to the human androgen receptor than the corresponding hydantoin [1]: around 140 times; Rat Androgen Receptor Binding RBA (%) R1881 = 100 [2]: 3.9%; IC50 [3, 9]: 9.4 nM; LNCaP Cells Antiandrogenic activity (PSA) % inhibition at 10^−7M [4]: 26%
Cc1c(N2C(=O)C(C)(C)N(CCCOc3ccc(-c4ccncc4)cc3)C2=S)ccc(C#N)c1C(F)(F)F [EM-8691] | 163% | 24% | 39% | potent SARM | – | > 100 | 525 ± 362 (n = 3) % | affinity for the androgen receptor (in words) [1]: high affinity
CC1(C)C(=O)N(c2ccc(C#N)c(Cl)c2)C(=O)N1CCCOc1ccc(-c2ccncc2)cc1 [EM-9116] | – | – | – | better antiandrogens | – | 17 ± 5 | 9.2 ± 1.9 (n = 5) % | affinity for the androgen receptor (in words) [1]: higher affinity
Cc1c(N2C(=O)N(CCCOc3ccc(-c4cc[n+]([O-])cc4)cc3Cl)C(C)(C)C2=O)ccc(C#N)c1Cl [EM-9252] | 105 ± 9 (n = 2) % | 29 ± 5 (n = 2) % | 46 ± 5 (n = 2) % | selective androgen receptor modulators | – | > 100 | 96.3% | –
Cc1c(N2C(=O)C(C)(C)N(CCCOc3ccc(-c4ccncc4)cc3)C2=S)ccc(C#N)c1Cl [EM-8664] | 177% | 66% | 62% | – | – | > 100 | 664% | –
Cc1c(N2C(=O)N(CCCOc3ccc(-c4cc[n+]([O-])cc4Cl)cc3)C(C)(C)C2=O)ccc(C#N)c1Cl [EM-9313] | 88 ± 2 (n = 2) % | 14 ± 9 (n = 2) % | 36 ± 2 (n = 2) % | – | – | > 100 | 34.1% | –
Cc1c(N2C(=O)N(CCCOc3ccc(-c4cc[n+]([O-])cc4)c(F)c3)C(C)(C)C2=O)ccc(C#N)c1Cl [EM-9254] | 101 ± 5 (n = 3) % | 23 ± 1 (n = 3) % | 47 ± 6 (n = 3) % | – | 38.8% | 54.8 | – | –
Cc1c(N2C(=O)C(C)(C)N(CCCOc3ccc(-c4ccc(N(C)C)nc4)cc3)C2=S)ccc(C#N)c1Cl [EM-8993] | 123% | 61% | 50% | – | 4.8% | 59.5 | – | –
Cc1c(N2C(=O)N(CCCOc3ccc(-c4ccncc4)c(C(F)(F)F)c3)C(C)(C)C2=O)ccc(C#N)c1Cl [EM-9333] | 93 ± 23 (n = 2) % | 19 ± 5 (n = 2) % | 38 ± 2 (n = 2) % | – | – | 73 | 64.1% | –
Cc1c(N2C(=O)C(C)(C)N(CCCOc3ccc4cnccc4c3)C2=S)ccc(C#N)c1Cl [EM-8869] | 101% | 18% | 31% | – | 56% | – | – | IC50 ([3]; Mus musculus, DHT (0.3 nM)-stimulated cell number, read-out: Shionogi Antiandrogenic Activity IC50): ~1000 nM
Cc1c(N2C(=O)C(C)(C)N(CCCOc3ccc(-c4cncnc4)cc3)C2=S)ccc(C#N)c1Cl [EM-8685] | 136% | 20% | 41% | – | – | > 100 | 144% | –
Cc1c(N2C(=O)N(CCCOc3ccc(-c4ccncc4)cc3F)C(C)(C)C2=O)ccc(C#N)c1Cl [EM-9297] | 120% | 26% | 31% | – | – | 72.8 | 101% | –
